Active and inactive are the calls of the source. The rule behind the calls is not given here.
How the values were obtained:
[1] = Neurotoxicity activity in ip dosed mouse assessed as induction of motor impairment by rotarod test; type: toxicity, organism-based; conditions: in vivo
Mus musculus [2] = test: Anticonvulsant activity in ip dosed mouse assessed as protection against tonic-clonic seizures by maximal electroshock seizure test; type: functional
Mus musculus [3] = test: Anticonvulsant activity in ip dosed mouse assessed as protection against ScPTZ-induced epilepsy by subcutaneous pentylenetetrazole test; type: functional
[4] = Protection index, ratio of TD50 for neurotoxicity in ip dosed mouse to ED50 for anticonvulsant activity in ip dosed mouse by maximal electroshock seizure test; type: toxicity, organism-based; conditions: in vivo, read-out: PI
[5] = Protection index, ratio of TD50 for neurotoxicity in ip dosed mouse to ED50 for anticonvulsant activity in ip dosed mouse by subcutaneous pentylenetetrazole test; type: toxicity, organism-based; conditions: in vivo, read-out: PI
Mus musculus [6] = test: Anticonvulsant activity in ip dosed mouse assessed as minimum dose required for protection against tonic-clonic seizures measured after 0.5 hrs by maximal electroshock seizure test; type: functional
Mus musculus [7] = test: Anticonvulsant activity in ip dosed mouse assessed as minimum dose required for protection against ScPTZ-induced epilepsy measured after 0.5 hrs by subcutaneous pentylenetetrazole test; type: functional
Mus musculus [8] = test: Anticonvulsant activity in ip dosed mouse assessed as minimum dose required for protection against ScPTZ-induced epilepsy measured after 4 hrs by subcutaneous pentylenetetrazole test; type: functional
[9] = Neurotoxicity in ip dosed mouse assessed as minimum dose required for induction of motor impairment measured after 0.5 hrs by rotarod test; type: toxicity, organism-based; conditions: in vivo
Mus musculus [10] = test: Anti-convulsant activity in mouse assessed as protection of animals against psychomotor seizures at 100 mg/kg, ip measured after 0.5 hrs by 6 Hz limbic seizure test; type: functional
Mus musculus [11] = test: Anti-convulsant activity in mouse assessed as protection of animals against psychomotor seizures at 100 mg/kg, ip measured after 4 hrs by 6 Hz limbic seizure test; type: functional
Mus musculus [12] = test: Anticonvulsant activity in ip dosed mouse assessed as protection against ScPTZ-induced epilepsy measured after 0.5 hrs by subcutaneous pentylenetetrazole test; type: functional
Mus musculus [13] = test: Anti-convulsant activity in ip dosed mouse assessed as protection against psychomotor seizures measured after 0.5 hrs by 6 Hz limbic seizure test; type: functional
[14] = Protection index, ratio of TD50 for neurotoxicity in ip dosed mouse to ED50 for anticonvulsant activity in ip dosed mouse measured after 0.5 hrs by subcutaneous pentylenetetrazole test; type: toxicity, organism-based; conditions: in vivo, read-out: PI
[15] = Protection index, ratio of TD50 for neurotoxicity in ip dosed mouse to ED50 for anticonvulsant activity in ip dosed mouse measured after 0.5 hrs by 6 Hz limbic seizure test; type: toxicity, organism-based; conditions: in vivo, read-out: PI
Mus musculus [16] = test: Anticonvulsant activity in mouse assessed as protection against tonic-clonic seizures at 300 mg/kg, ip measured after 4 hrs by maximal electroshock seizure test; type: functional, organism-based
[17] = Neurotoxicity in mouse assessed as induction of motor impairment at 300 mg/kg, ip measured after 4 hrs by rotarod test; type: toxicity, organism-based; conditions: in vivo
Homo sapiens [18] = species on record: Homo sapiens; test: Inhibition of Sodium channel site 2 (unknown origin) at 100 uM
Homo sapiens [19] = species on record: Homo sapiens; test: Inhibition of L-type calcium channel (unknown origin) at 100 uM
Homo sapiens [20] = species on record: Homo sapiens; test: Inhibition of NMDA receptor (unknown origin) at 100 uM
Homo sapiens [21] = species on record: Homo sapiens; test: Inhibition of GABAA receptor (unknown origin) at 100 uM
Mus musculus [22] = test: Anticonvulsant activity in ip dosed mouse assessed as minimum dose required for protection against tonic-clonic seizures measured after 4 hrs by maximal electroshock seizure test; type: functional
[23] = Neurotoxicity in ip dosed mouse assessed as minimum dose required for induction of motor impairment measured after 4 hrs by rotarod test; type: toxicity, organism-based; conditions: in vivo
Mus musculus [24] = test: Anticonvulsant activity in ip dosed mouse assessed as protection against ScPTZ-induced epilepsy measured after 4 hrs by subcutaneous pentylenetetrazole test; type: functional
Mus musculus [25] = test: Anticonvulsant activity in mouse assessed as protection against tonic-clonic seizures at 300 mg/kg, ip measured after 0.5 hrs by maximal electroshock seizure test; type: functional, organism-based
[26] = Neurotoxicity in mouse assessed as induction of motor impairment at 300 mg/kg, ip measured after 0.5 hrs by rotarod test; type: toxicity, organism-based; conditions: in vivo
[27] = Protection index, ratio of TD50 for neurotoxicity in ip dosed mouse to ED50 for anticonvulsant activity in ip dosed mouse measured after 4 hrs by subcutaneous pentylenetetrazole test; type: toxicity, organism-based; conditions: in vivo, read-out: PI
Mus musculus [28] = test: Anticonvulsant activity in ip dosed mouse assessed as protection against ScPTZ-induced epilepsy measured after 0.25 hrs by subcutaneous pentylenetetrazole test; type: functional
Mus musculus [29] = test: Anti-convulsant activity in ip dosed mouse assessed as protection against psychomotor seizures measured after 0.25 hrs by 6 Hz limbic seizure test; type: functional

Question: For O=C1CC(C(c2ccccc2)c2ccccc2)C(=O)N1CN1CCN(c2cccc(C(F)(F)F)c2)CC1 (stereo not given), which TD50 [1] is on record?
Answer: > 500 mg/kg

Question: And the ED50 (Mus musculus [2])?
Answer: 101 mg/kg

Question: What about the ED50 (Mus musculus [3]) of the same compound?
Answer: 73 mg/kg

Question: What about the selectivity ratio [4] of the same compound?
Answer: > 4.95

Question: What about the selectivity ratio [5] of the same compound?
Answer: > 6.84

Question: For CC(c1ccccc1)C1CC(=O)N(CN2CCN(C)CC2)C1=O.Cl (racemic), which minimum effective dose (Mus musculus [6]) is on record?
Answer: 300 mg/kg

Question: What about the “MED=>50” value (Mus musculus [7]) of the same compound?
Answer: 30 mg/kg

Question: What about the “MED=>50” value (Mus musculus [8]) of the same compound?
Answer: 300 mg/kg

Question: And the MTD50 [9]?
Answer: 300 mg/kg

Question: And the Activity (Mus musculus [10])?
Answer: 100%

Question: What about the Activity (Mus musculus [11]) of the same compound?
Answer: 0%

Question: What about the ED50 (Mus musculus [12]) of the same compound?
Answer: 39 mg/kg

Question: And the ED50 (Mus musculus [13])?
Answer: 36 mg/kg

Question: What about the TD50 [1] of the same compound?
Answer: 229 mg/kg

Question: And the selectivity ratio at 0.5 h [14]?
Answer: 5.87

Question: And the selectivity ratio at 0.5 h [15]?
Answer: 6.36

Question: And the Activity (Mus musculus [16])?
Answer: inactive

Question: What about the Activity [17] of the same compound?
Answer: Non-Toxic

Question: And the inhibition (Homo sapiens [18])?
Answer: < 50%

Question: What about the inhibition (Homo sapiens [19]) of the same compound?
Answer: < 50%

Question: What about the inhibition (Homo sapiens [20]) of the same compound?
Answer: < 50%

Question: What about the inhibition (Homo sapiens [21]) of the same compound?
Answer: < 50%

Question: For O=C1CC(Cc2ccccc2)C(=O)N1CN1CCN(c2ccc(Cl)c(Cl)c2)CC1 (racemic), which “MED=>50” value (Mus musculus [22]) is on record?
Answer: 300 mg/kg

Question: What about the “MED=>50” value (Mus musculus [7]) of the same compound?
Answer: 300 mg/kg

Question: And the “MED=>50” value (Mus musculus [8])?
Answer: 100 mg/kg

Question: What about the MTD50 [23] of the same compound?
Answer: 300 mg/kg

Question: And the Activity (Mus musculus [10])?
Answer: 0%

Question: What about the Activity (Mus musculus [11]) of the same compound?
Answer: 0%

Question: What about the ED50 (Mus musculus [24]) of the same compound?
Answer: 106 mg/kg

Question: What about the TD50 [1] of the same compound?
Answer: 246 mg/kg

Question: What about the Activity (Mus musculus [25]) of the same compound?
Answer: inactive

Question: And the Activity [26]?
Answer: Non-Toxic

Question: And the selectivity ratio at 4 h [27]?
Answer: 2.32

Question: What does the source list for CCC1(C)CC(=O)NC1=O (stereo not given) [ETHOSUXIMIDE]?
Answer: ED50 (Mus musculus [28]): 140 mg/kg; ED50 (Mus musculus [29]): > 200 mg/kg

From ChEMBL document CHEMBL4715709, “Synthesis and evaluation of anticonvulsant properties of new N-Mannich bases derived from 3-(1-phenylethyl)- and 3-benzyl-pyrrolidine-2,5-dione” (Bioorg Med Chem Lett, 2016)
